Measurements: patent US4520014A (priority 1979, dated 1985)
Structures can show the parent of a compound that is named as a salt. Where two headings read alike, the source gives them in different places.

Legend:
[1] = test system: fluid secretion caused by the enterotoxin(s) present in the culture filtrate (enteropathogenic strain of E. coli); assay: animal or person; type: in vivo, Mice
[2] = test system: fluid secretion caused by material prepared by cell lysis of an enteropathogenic strain of E. coli; assay: Infant rabbit test: inhibition of fluid secretion after oral challenge with E. coli cell lysis material; type: in vivo, Rabbits; conditions: for % Fluid Inhibition: Rabbit, hydrochloride salt
Experimental: Infant rabbits 7-10 days old are dosed with the compound under investigation orally 45 min prior to oral challenge with 50 ml/kg bodyweight of material prepared by cell lysis of an enteropathogenic strain of E. coli. Control animals receive drug vehicle 45 mins prior to challenge with a similar volume of material. 5-7 Hours after oral administration of the challenge the animals are killed and gut weight/remaining bodyweight ratios calculated and the percentage fluid inhibition determined as above.

[3] = test system: diarrhoea caused by culture filtrate prepared from an enteropathogenic strain of E. coli; assay: Piglet test: inhibition of scour after oral challenge with E. coli culture filtrate; type: in vivo, Piglets; conditions: scour score over 7 h, hydrochloride salt
Experimental: 2-4 Day old piglets are dosed with the compound orally 45 min prior to oral challenge with 25 ml of culture filtrate prepared from an enteropathogenic strain of E. coli. Control animals receive drug vehicle 45 min prior to challenge with a similar volume of material. Animals are observed for diarrhoea over a 7 hour period and the severity of scour scored on a 0-3 basis for each animal at hourly intervals. The percentage inhibition in treated animals is determined as: [formula]

[4] = test system: intestinal secretion induced by cholera toxin; conditions: alleged in G. N. Mir et al. (1978); cited from earlier work
E. coli P155 = type: in vivo, Piglets; conditions: n = 14
[5] = Mus musculus, po, 2 h; read-out: % Fluid Inhibition
[6] = 10 mg/kg oral, 45 min before challenge

SMILES: Cc1ccc2ccccc2c1CC1=NCCN1 [2-Methyl Naphazoline]
- inhibition in vivo at 20 mg/kg ([1]; Mus musculus, po, 2 h): 82%

SMILES: Cc1cc(C(C)(C)C)cc(C)c1CC1=NCCN1 [Xylometazoline]
- % Fluid Inhibition ([2]; 20 mg/kg oral): 119%
- inhibition in vivo at 8.25 mg/kg ([1]; Mus musculus, po, 2 h): 44%
- % Fluid Inhibition ([3]; 2 mg/kg oral): 44%

SMILES: CNC(=N)NC(=O)Nc1c(C)cccc1C [Lidamidine]
- % Fluid Inhibition ([2]; 50 mg/kg oral): -7%
- activity in the rabbit test ([2]; in words): inactive
- inhibition of intestinal secretion induced by cholera toxin [4]: inhibited intestinal secretion induced by cholera toxin
- inhibition in vivo at 50 mg/kg ([1]; Mus musculus, po, 2 h): 33%
- activity relative to the Compounds in the mouse test ([1]; mouse, in vivo): at least five times less active than the Compounds

SMILES: Clc1cccc(Cl)c1NC1=NCCN1 [Clonidine]
- % Fluid Inhibition ([2]; 5 mg/kg oral): 26%
- inhibition in vivo at 1 mg/kg ([1]; Mus musculus, po, 2 h, read-out: % Fluid Inhibition): 42%
- % Fluid Inhibition ([3]; 0.2 mg/kg oral): 64%

SMILES: CC1(C)S[C@@H]2[C@H](NC(=O)[C@H](N)c3ccc(O)cc3)C(=O)N2[C@H]1C(=O)O [Amoxycillin]
- Mean scour score ± S.E.M. (during 6 hrs after treatment) (E. coli P155): 2.0 ± 0.2

SMILES: c1cc2c(c(NC3=NCCN3)c1)CCCC2 [Tramazoline]
- inhibition in vivo at 10 mg/kg ([1]; Mus musculus, po, 2 h): 44%

SMILES: Cc1cc(C(C)(C)C)c(O)c(C)c1CC1=NCCN1 [Oxymetazoline]
- inhibition in vivo at 0.1 mg/kg ([1]; Mus musculus, po, 2 h): 78%

SMILES: N=C(N)NC(=O)Cc1c(Cl)cccc1Cl [BS 100-141, 2,6-dichlorophenylacetylguanidine hydrochloride]
- inhibition in vivo at 1 mg/kg [1, 5]: 45%
- % Fluid Inhibition ([3]; 1 mg/kg oral): 76%

SMILES: c1ccc2c(CC3=NCCN3)cccc2c1 [Naphazoline]
- % Fluid Inhibition [2, 6]: 32%
- inhibition in vivo at 10 mg/kg ([1]; Mus musculus, po, 2 h): 59%
- % Fluid Inhibition [3, 6]: 88%

SMILES: CCc1cccc(CC)c1NC1=NCCN1 [ST91]
- inhibition in vivo at 5 mg/kg ([1]; Mus musculus, po, 2 h): 56%
- inhibition in vivo at 1 mg/kg [1, 5]: 22%
